In one data set the test system is glioma cells. Kind of data set: In vitro 3D hydrogel culture, PDT induced cell death of glioma cells. It is filed as cell-based. The settings on record: glioma cells in 3D-hydrogel incubated with 5-ALA, illuminated with LED at 630 nm. An excerpt: An in vitro model of light penetration into tissue was established to determine the quantitative relationship between light penetrance PDT instigated cell death. The primary parameters for light input are illumination intensity and duration of illumination. The primary parameter for PDT instigated cell death is depth (or distance from the light source to the target treatment tissue), which directly attenuates light penetration into tissue.
To evaluate PDT for treatment of gliomas and brain cancers glioma cells were propagated in a hydrogel medium in a three-dimensional (3D) culture to mimic the cellular and optical environment of the brain. A commercial 3D culture system was used to set up the culture in a linear configuration such that a point source of light could be applied to one end of a closed culture in a cylinder form. The total cellular growth volume was 1 mm×1 mm×15 mm. A 630 nm LED light source that mimics the spectral characteristics and intensity of the any of the implantable devices disclosed herein was used to illuminate embedded glioma cells and to establish the effective PDT “kill radius.”
FIGS. 9A-9B show PDT induced cell death of glioma cells using a LED light source such as any of those disclosed herein. Glioma cells were embedded in a 3D-hydrogel, incubated with study drug 5-ALA, and illuminated with a light from a LED at 630 nm as shown in FIG. 9A. […]

In data set [1] the test system is C6 glioma. Briefly: Orthotopic C6 glioma xenograft, 5-ALA uptake and conversion to PPIX in tumor. It is filed as in vivo, Sprague Dawley rat. The settings on record: C6 tumor in rat striatum, histology. The protocol:
C6 rat glioma cells were maintained in F12K medium (F-12K Nutrient Mixture, 1X, Gibco) supplemented with […] (Biowest), […] (Gibco), and 1% each of P/S and L/G antibiotics (Biowest) at 37° C. in a humidified incubator containing 5% CO2. Subconfluent, low passage C6 glioma cells were resuspended to single cell suspension in sterile PBS (1X, Hyclone) within two hours of xenotransplantation.
Approximately 2×10^5 cells were stereotactically injected into the striatum of rats (230-270 g, InVivos Pte Ltd) under general anaesthesia. Using a hand-held drill, a burr hole of 1 mm was drilled and cells were injected unilaterally at 3 mm lateral to Bregma and at a depth of 4 mm. Injections were conducted using borosilicate capillary glass micropipettes (A-M Systems) pulled to a tip diameter of ˜[…]. Animals were allowed to recover with daily antibiotics and analgesics for up to a week and monitored post operatively for adverse events and signs of distress in compliance with relevant animal treatment guidelines.
FIG. 10 illustrates an orthotopic xenograft model. Rat C6 glioma cells are implanted unilaterally into the striatum of Sprague Dawley rats. Tumor engraftment and growth was rapid and morphology is consistent with human high grade gliomas.

Data set [2] relates to C6 glioma. Kind of data set: Single application of PDT in orthotopic C6 glioma model (Ki67, TUNEL histology). It is filed as in vivo, Sprague Dawley rat. Here is the method:
(§1) The implants were secured in place by suturing the overlying skin to close the surgical site. Device operation was tested briefly before closure. Six hours prior to each PDT treatment, rats were injected with 100 mg/kg 5-ALA (Synchem UG & Co. KG) prepared in sterile PBS (1X, Hyclone) via tail vein or with a vehicle control. PDT treatment was conducted under 1.5-2.5% […] isoflurane/O2 general anesthesia. Wireless powering coils such as those disclosed herein were secured to each animal's head, and each PDT treatment delivered 2.5 mW/cm2 of light over 3,600 seconds for a total fluence of 9 J/cm^2 per treatment. Any of the other treatment parameters disclosed herein may be used.
Test animals were sacrificed after 24 hours, and their brains were sectioned for histological examination. The proliferation marker Ki67 and the TUNEL assay (terminal deoxynucleotidyl transferase dUTP nick end labeling) indicative of apoptosis was used to quantify the PDT effect.
Test animals were sacrificed after 24 hours, and their brains were sectioned for histological examination. The proliferation marker Ki67 and the TUNEL assay indicative of apoptosis was used to quantify the PDT effect.

The subject of data set [3] is C6 glioma. Kind of data set: Single vs. repeated PDT (rePDT) in orthotopic C6 glioma model, survival and tumor size. It is filed as in vivo, Sprague Dawley rat.
Excerpt: Animals were monitored daily for weight change and behavioral abnormalities ahead of xenograft induced mortality. Ethical termination via CO2 overdose was triggered in the following events: individual weight loss of greater than 20% in one day, extended cessation of motor behavior and loss of grooming; paralysis and lack of movement/lying on a side. After termination or death, individual rat brains were dissected and prepared for histological analysis by freezing in OCT compound (Tissue-Tek). Survival analysis was performed via the method of Kaplan-Meier.
as §1
Further experimentation was conducted to determine if repeated application of PDT treatment would have a cumulative effect on tumor growth and disease progression. […] If a single PDT treatment was at least 50% effective in destroying the tumor population, an inter-treatment interval of 2 days would maintain or diminish the tumor graft to at, or near starting levels. With this rationale in mind, PDT treatment was applied according to the schema shown in FIG. 12A with four treatments repeated every two days starting at day 4 after xenograft surgery.
On the day of treatment, animals received 5-ALA via tail vein injection and allowed to recover for 6 hours to allow uptake and expression of PPIX. PDT treatment was conducted under light general anaesthesia via halothane to reduce movement during PDT. […] This procedure was repeated at 2-day intervals for a total of four treatments.
FIG. 13 also illustrates survival curves for single vs repeat PDT treated animals. Sprague Dawley rats were implanted with c6 glioma cells and implanted with a wirelessly powered light source above the injection site as described. On treatment days (days 4, 6, 8, 10), animals were given the study drug 5-ALA as described and received PDT treatment. […] In contrast, 7 of 8 cohort 2 animals, which received PDT treatment on days 4, 6, 8, and 10, survived to day 70 at which point the experiment was stopped. Therefore, rePDT kills more of the tumor compared with a single treatment of PDT and increases survival time of the rodents.

For data set [4] the following is noted: in vivo; cited from earlier work.

“And” between values parts separate entries of the source, which are not always exact repeats. Identical values can stand only once. A value given as a limit tells only on which side of the number the result lay.

The values below come from patent US20240100164A1, “REPEATED PHOTODYNAMIC THERAPY USING PHOTOSENSITIZING AGENT” (Incando Therapeutics Pte. Ltd., priority 2022, published 2024).

As for `Cl.NCC(=O)CCC(=O)O` [5-ALA, 5-amino-4-oxo-pentanoic acid hydrochloride], the “effective "kill zone" (distance from the light source)” value in the data set on glioma cells is given as 6-8 mm. Moreover, in the data set with C6 glioma [1], the “PPIX signal in the tumor (conversion of 5-ALA to PPIX)” value is “Strong PPIX signal”. Besides, the “tumor uptake of photosensitizer” value with C6 glioma [1] was “takes up the photosensitizer drug 5-ALA”. Also, the “PDT effect (Ki67 and TUNEL)” value with C6 glioma [2] (100 mg/kg 5-ALA tail vein 6 h before wirelessly powered light, 9 J/cm^2, sacrificed after 24 hours) is “able to induce PDT”; with C6 glioma [2] (either component singly (5-ALA without light)) it was “did not show the same effect”. For the same molecule, the “adverse effects after PDT treatment” value with C6 glioma [3] (5-ALA tail vein 6 hours before PDT under general anaesthesia, four treatments at 2-day intervals) is recorded as “no adverse effects”. The same molecule yielded a mean survival in the data set with C6 glioma [3] (Cohort 1, PDT treatment only on day 4 (n=10)) of roughly 22 days. Also, in the data set on C6 glioma [3] (control animals (control treatment = single PDT session)), the time of mortality was 22 to 24 days. The tumor size with C6 glioma [3] (control animals (control treatment = single PDT session), necropsy) is 125-200 mm^3. Further, the median survival with C6 glioma [3] (control animals (n=10), Kaplan-Meier) was found to be 21 days. Also, the “animals living at the end of the experiment” value with C6 glioma [3] (rePDT) came to 89%. Further, in the data set on C6 glioma [3] (rePDT animals, histology), the “tumor cells by H&E staining” value is given as “trace amounts of tumor cells”. Also, in the data set with C6 glioma [3] (rePDT animals, histology, vs contralateral controls), the Ki67 level result was “low levels of Ki67”. Also, the “reduction in the tumor volume” value with C6 glioma [3] (rePDT vs control animals, gross estimates) was greater than 99.5%. Besides, the “animals living at the end of the experiment (day 70)” value with C6 glioma [3] (rePDT, PDT on days 4, 6, 8, 10, hydrochloride) was 8 out of 9 and 7 of 8. In addition, in the data set on C6 glioma [3] (repeated PDT (rePDT), four treatments every two days from day 4), the “survival (day of termination of experiment)” value is no less than 70 days.

In the case of `C=CC1=C(C)c2cc3[nH]c(cc4nc(cc5[nH]c(cc1n2)c(C)c5CCC(=O)O)C(CCC(=O)O)=C4C)c(C)c3C=C` [PPIX, Protoporphyrin IX], the “systemic clearance time of 5-ALA-induced PPIX” value in data set [4] was no more than 24 h.
